Data on one molecule can be found in patent US9944611B2, “Polymerizable resins containing a 1,3,5-hexahydro-1,3,5-triazine moiety, methods of making, and dental compositions containing the same” (DENTSPLY SIRONA INC., priority 2013, dated 2018).

The series can be described thus: Solubility of hydroxy-terminated TAT derivatives in water/EtOH (1:1). Format: physicochemical. An excerpt:
A sample of each of the examples was then subjected to further characterization and testing, including by NMR, along with pure TAT. The results are summarized in Table 1, which illustrates, among other things, that the increased amounts of DEA improved the solubility: […]

As for `C=CC(=O)N1CN(C(=O)C=C)CN(C(=O)C=C)C1` [Parent Sample (TAT), 1,3,5-triacryloyl-hexahydro-1,3,5-triazine], the “Solubility in water/EtOH (1:1) @ 25% w/w” value is “insoluble”.
